For test [1], the system named is Cell membrane. Briefly: Disruption of inner membrane potential in wild type Escherichia coli BW25113 at 512 ug/ml preincubated for 10 mins followed by glucose stimulation and CCCP addition by DiOC2 probe based fluorimetric analysis. Type of test: subcellular. Conditions: dose 512.0 µg/ml.
Test [2] concerns Escherichia coli. The experiment in a line: Potentiation of chloramphenicol-induced antibacterial activity against wild type Escherichia coli BW25113 assessed as chloramphenicol MIC at 128 ug/ml incubated for 18 hrs under aerobic condition by checkerboard titration assay (reference value: 16 ug/ml). The class given is functional. Particulars: dose 128 µg/ml.
In test [3] the test system is Escherichia coli. Briefly: Potentiation of erythromycin-induced antibacterial activity against AcrB deficient Escherichia coli BW25113 assessed as erythromycin MIC at 256 ug/ml incubated for 18 hrs under aerobic condition by checkerboard titration assay (reference value: 32 ug/ml). Type of test: functional. Conditions: dose 256 µg/ml.
The subject of test [4] is Escherichia coli. The experiment in a line: Potentiation of chloramphenicol-induced antibacterial activity against wild type Escherichia coli BW25113 assessed as chloramphenicol MIC at 256 ug/ml incubated for 18 hrs under aerobic condition by checkerboard titration assay (reference value: 16 ug/ml). The class given is functional. Conditions: dose 256 µg/ml.
Test [5] deals with Escherichia coli. Briefly: Potentiation of TPP-induced antibacterial activity against AcrB deficient Escherichia coli BW25113 assessed as TPP MIC at 256 ug/ml incubated for 18 hrs under aerobic condition by checkerboard titration assay (reference value: 256 ug/ml). The class given is functional. Conditions: dose 256 µg/ml.
Test [6] relates to Escherichia coli. Briefly: Potentiation of erythromycin-induced antibacterial activity against wild type Escherichia coli BW25113 assessed as erythromycin MIC at 256 ug/ml incubated for 18 hrs under aerobic condition by checkerboard titration assay (reference value: 128 ug/ml). Type of test: functional. Particulars: dose 256 µg/ml.
For test [7], the system named is Escherichia coli. The experiment in a line: Potentiation of TPP-induced antibacterial activity against wild type Escherichia coli BW25113 assessed as TPP MIC at 256 ug/ml incubated for 18 hrs under aerobic condition by checkerboard titration assay (reference value: 1024 ug/ml). The class given is functional. Conditions: dose 256 µg/ml.
For test [8], the system named is Escherichia coli. The experiment in a line: Antibacterial activity against Wild type Escherichia coli BW25113 assessed as inhibition of AcrB efflux pump by mesuring the glucose-induced nile red efflux at 500 uM preincubated with CCCP for 15 mins followed by compound addition after 15 mins nile red added and incubated for 3 hrs in shaker by fluorimetric analysis. Type of test: functional, organism-based. Particulars: time 195.0 min.

Test [9] has as its system Escherichia coli. Briefly: Potentiation of rifampicin-induced antibacterial activity against wild type Escherichia coli BW25113 assessed as rifampicin MIC at 128 ug/ml incubated for 18 hrs under aerobic condition by checkerboard titration assay (reference value: 16 ug/ml). The class given is functional. Conditions: dose 128 µg/ml.
The test system of test [10] is Escherichia coli. Briefly: Potentiation of chloramphenicol-induced antibacterial activity against AcrB deficient Escherichia coli BW25113 assessed as chloramphenicol MIC at 256 ug/ml incubated for 18 hrs under aerobic condition by checkerboard titration assay (reference value: 2 ug/ml). Particulars: dose 256 µg/ml. The class given is functional.
For test [11], the system named is Escherichia coli. The experiment in a line: Potentiation of rifampicin-induced antibacterial activity against wild type Escherichia coli BW25113 assessed as rifampicin MIC at 256 ug/ml incubated for 18 hrs under aerobic condition by checkerboard titration assay (reference value: 16 ug/ml). Type of test: functional. Particulars: dose 256 µg/ml.
Test [12] relates to Escherichia coli. The experiment in a line: Potentiation of TPP-induced antibacterial activity against wild type Escherichia coli BW25113 assessed as TPP MIC at 128 ug/ml incubated for 18 hrs under aerobic condition by checkerboard titration assay (reference value: 1024 ug/ml). Type of test: functional. Conditions: dose 128 µg/ml.
Test [13] concerns Escherichia coli. Briefly: Potentiation of erythromycin-induced antibacterial activity against wild type Escherichia coli BW25113 assessed as erythromycin MIC at 128 ug/ml incubated for 18 hrs under aerobic condition by checkerboard titration assay (reference value: 128 ug/ml). Type of test: functional. Particulars: dose 128 µg/ml.
Test [14] relates to Cell membrane. The experiment in a line: Induction of outer membrane permeabilization in wild type Escherichia coli BW25113 assessed as increase in nitrocefin hydrolysis at 512 ug/ml measured for 30 mins in presence of CCCP by spectrophotometry analysis. Particulars: dose 512.0 µg/ml. Type of test: subcellular.
For test [15], the system named is Escherichia coli. The experiment in a line: Potentiation of chloramphenicol-induced antibacterial activity against wild type Escherichia coli BW25113 assessed as fold reduction in chloramphenicol MIC at 256 ug/ml incubated for 18 hrs under aerobic condition by checkerboard titration assay relative to chloramphenicol MIC alone. The class given is functional. Particulars: dose 256 µg/ml.

Test [16] has as its system Escherichia coli. Briefly: Potentiation of chloramphenicol-induced antibacterial activity against wild type Escherichia coli BW25113 assessed as fold reduction in chloramphenicol MIC at 128 ug/ml incubated for 18 hrs under aerobic condition by checkerboard titration assay relative to chloramphenicol MIC alone. Conditions: dose 128 µg/ml. The class given is functional.

The test system of test [17] is Escherichia coli. Briefly: Potentiation of erythromycin-induced antibacterial activity against wild type Escherichia coli BW25113 assessed as fold reduction in erythromycin MIC at 128 ug/ml incubated for 18 hrs under aerobic condition by checkerboard titration assay relative to erythromycin MIC alone. The class given is functional. Particulars: dose 128 µg/ml.
The test system of test [18] is Escherichia coli. The experiment in a line: Antibacterial activity against Wild type Escherichia coli BW25113 assessed as inhibition of AcrB efflux pump by mesuring the glucose-induced nile red efflux at 200 uM preincubated with CCCP for 15 mins followed by compound addition after 15 mins nile red added and incubated for 3 hrs in shaker by fluorimetric analysis. The class given is functional, organism-based. Particulars: time 195.0 min.

SMILES strings stand for the structures. Activity calls are given as the source filed them. No cut-off for these calls is given here.

Broadly, the MIC is the lowest concentration found to suppress growth. Regarding `NC(=O)c1cc(OCCOc2ccccc2N)c2ccccc2c1`, the result with Cell membrane [1], in the test with Escherichia coli [8] and in the test on Cell membrane [14] was Active. In addition, the MIC in the test with Escherichia coli [2] is 8 mg/L; with Escherichia coli [3] it was 32 mg/L; with Escherichia coli [4] it was 4 mg/L; with Escherichia coli [5] it was 256 mg/L; in the test on Escherichia coli [6] it was 128 mg/L; in the test on Escherichia coli [7], 1020 mg/L. Moreover, the MIC in the test on Escherichia coli [9] came out at 16 mg/L; in the test with Escherichia coli [10], 2 mg/L; in the test on Escherichia coli [11], 16 mg/L; with Escherichia coli [12], 1020 mg/L; in the test with Escherichia coli [13], 128 mg/L.

For the molecule `CC(C)CCOc1cc(C(=O)NCc2ccccc2)cc2ccccc12`, the MIC stood at 8 mg/L in the test on Escherichia coli [2]; 32 mg/L in the test on Escherichia coli [3]; 4 mg/L in the test on Escherichia coli [4]; 256 mg/L in the test on Escherichia coli [5]; 32 mg/L in the test with Escherichia coli [6]; 1020 mg/L in the test on Escherichia coli [7]. The MIC in the test with Escherichia coli [9] is 16 mg/L; with Escherichia coli [10], 1 mg/L; with Escherichia coli [11] it was 8 mg/L; in the test with Escherichia coli [12], 1020 mg/L; in the test on Escherichia coli [13], 64 mg/L. Besides, in the test on Cell membrane [14], the result was inactive.

Turning to `CC(C)CCOc1cc(C(=O)Nc2ccccc2C(F)(F)F)cc2ccccc12`, the outcome in the test with Cell membrane [1] and in the test with Cell membrane [14] was inactive. Besides, the MIC is 8 mg/L with Escherichia coli [2]; 32 mg/L with Escherichia coli [3]; 4 mg/L in the test with Escherichia coli [4]; 256 mg/L with Escherichia coli [5]; 32 mg/L in the test on Escherichia coli [6]; 1020 mg/L with Escherichia coli [7]. In addition, the MIC with Escherichia coli [9] stood at 16 mg/L; in the test with Escherichia coli [10], 2 mg/L; with Escherichia coli [11], 16 mg/L; in the test with Escherichia coli [12], 1020 mg/L; with Escherichia coli [13], 64 mg/L. For the same molecule, the result in the test on Escherichia coli [8] was Active.

As for `CC(C)CCOc1cc(C(=O)NCc2ccccc2Cl)cc2ccccc12`, the outcome with Cell membrane [1] and with Escherichia coli [8] was Active. In addition, the MIC in the test with Escherichia coli [2] came out at 4 mg/L; in the test on Escherichia coli [3], 32 mg/L; with Escherichia coli [4], 2 mg/L; with Escherichia coli [5] it was 256 mg/L; in the test on Escherichia coli [6] it was 128 mg/L; in the test on Escherichia coli [7], 1020 mg/L. Further, the MIC with Escherichia coli [9] amounted to 16 mg/L; in the test with Escherichia coli [10], 2 mg/L; in the test on Escherichia coli [11], 16 mg/L; with Escherichia coli [12], 1020 mg/L; with Escherichia coli [13] it was 128 mg/L. Moreover, the “fold change (FC)” value with Escherichia coli [15] is recorded as 8; with Escherichia coli [16], 4; in the test with Escherichia coli [17], 4. The result in the test on Cell membrane [14] was inactive.

As to `COc1ccc(CNC(=O)c2cc(OCc3ccccc3)c3ccccc3c2)cc1`, the MIC in the test on Escherichia coli [2] turned out to be 8 mg/L; in the test on Escherichia coli [3], 32 mg/L; with Escherichia coli [4], 4 mg/L; in the test on Escherichia coli [6] it was 128 mg/L; in the test with Escherichia coli [7], 1020 mg/L; with Escherichia coli [9], 16 mg/L. For the same molecule, the minimal inhibitory concentration (MIC) was 2 mg/L in the test on Escherichia coli [10], 4 mg/L with Escherichia coli [11], 1020 mg/L in the test with Escherichia coli [12] and 128 mg/L with Escherichia coli [13]. Further, the outcome in the test with Escherichia coli [18] and in the test on Cell membrane [14] was Active.

The record behind these values is ChEMBL document CHEMBL4715814, “Design, synthesis and biological activity evaluation of novel 4-subtituted 2-naphthamide derivatives as AcrB inhibitors” (2018).
